Results as given in the supplement of paper PMC11061612.

What was measured:
Test in all cases: combination Emax (second highest fraction inhibited in the dose matrix, 72 h); higher = more inhibition; extreme values may be limits of the assay
[1] = tested on: ALL-PO (B-Lymphoblastic Leukemia)
Outline: (§1)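 Cell lines in DMEM/F12 or RPMI with 10% FBS were plated in 1536-well plates, held 24 hours at 37°C, 5% CO2, then given two-drug dose matrices for 72 hours (DMSO typically 0.2%). Viability was read by CellTiter-Glo 2.0 luminescence and scaled as inhibition from 0 (vehicle wells) to 1 (blank wells). Combination Emax is the second-highest inhibition in the matrix; Bliss excess is observed combination effect minus expected EA + EB − EA·EB, EA and EB being single-agent effects.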

[2] = tested on: BE-13 (T-Lymphoblastic Leukemia)
Outline: as §1

[3] = tested on: BFTC-909 (Kidney Carcinoma)
Outline: as §1

[4] = tested on: BPH-1 (Non-Cancerous)
Outline: as §1

[5] = tested on: CAL-33 (Oral Cavity Carcinoma)
Outline: as §1

[6] = tested on: GAMG (Glioblastoma)
Outline: as §1

[7] = tested on: HH (T-Cell Non-Hodgkin's Lymphoma)
Outline: as §1

[8] = tested on: HuH-7 (Hepatocellular Carcinoma)
Outline: as §1

[9] = tested on: KMRC-20 (Kidney Carcinoma)
Outline: as §1

[10] = tested on: KS-1 (Glioblastoma)
Outline: as §1

[11] = tested on: KYAE-1 (Esophageal Adenocarcinoma)
Outline: as §1

[12] = tested on: LOXIMVI (Melanoma)
Outline: as §1

[13] = tested on: LS-123 (Colorectal Carcinoma)
Outline: as §1

[14] = tested on: MPP-89 (Mesothelioma)
Outline: as §1

[15] = tested on: NCI-H1568 (Lung Adenocarcinoma)
Outline: as §1

[16] = tested on: OV-56 (Ovarian Carcinoma)
Outline: as §1

[17] = tested on: SNU-449 (Hepatocellular Carcinoma)
Outline: as §1

[18] = tested on: SW1710 (Bladder Carcinoma)
Outline: as §1

[19] = tested on: WSU-NHL (B-Cell Non-Hodgkin's Lymphoma)
Outline: as §1

[20] = tested on: YAPC (Pancreatic Carcinoma)
Outline: as §1

Row | Structure (SMILES) | combination Emax [1] | combination Emax [2] | combination Emax [3] | combination Emax [4] | combination Emax [5] | combination Emax [6] | combination Emax [7] | combination Emax [8] | combination Emax [9] | combination Emax [10] | combination Emax [11] | combination Emax [12] | combination Emax [13] | combination Emax [14] | combination Emax [15] | combination Emax [16] | combination Emax [17] | combination Emax [18] | combination Emax [19] | combination Emax [20]
1 | Cn1cnc2c(F)c(Nc3ccc(Br)cc3Cl)c(C(=O)NOCCO)cc21 [Selumetinib] + CC(C)n1c(=O)n(C)c2cnc3cc(F)c(-c4ccc(OCCCN5CCCCC5)nc4)cc3c21 [AZD1390] (first compound max 10 µM, 7x7, partner max 0.3 µM) | 0.301 | 0.179 | 0.184 | 0.487 | 0.755 | 0.151 | 0.198 | 0.275 | 0.131 | 0.197 | 0.144 | 0.658 | 0.488 | 0.0892 | 0.142 | 0.133 | 0.16 | 0.196 | 0.205 | 0.193
2 | CC1(C)CCC(CN2CCN(c3ccc(C(=O)NS(=O)(=O)c4ccc(NCC5CCOCC5)c([N+](=O)[O-])c4)c(Oc4cnc5[nH]ccc5c4)c3)CC2)=C(c2ccc(Cl)cc2)C1 [Venetoclax] + C1CN(CCC1(C(=O)N[C@@H](CCO)C2=CC=C(C=C2)Cl)N)C3=NC=NC4=C3C=CN4 [Capivasertib] (first compound max 1 µM, 7x7, partner max 3 µM) | 0.669 | 0.379 | 0.554 | 0.382 | 0.276 | 0.505 | 0.44 | 0.17 | 0.294 | 0.303 | 0.407 | 0.247 | 0.34 | 0.375 | 0.133 | 0.153 | 0.222 | 0.23 | 0.977 | 0.124
3 | CCN(CCO)CCCOc1ccc2c(Nc3cc(CC(=O)Nc4cccc(F)c4)[nH]n3)ncnc2c1 [AZD2811] + C=CCn1c(=O)c2cnc(Nc3ccc(N4CCN(C)CC4)cc3)nc2n1-c1cccc(C(C)(C)O)n1 [AZD1775] (first compound max 1 µM, partner max 1 µM) | 0.981 | 0.982 | 0.683 | 0.679 | 0.877 | 0.417 | 0.293 | 0.132 | 0.6 | 0.481 | 0.395 | 0.959 | 0.68 | 0.511 | 0.429 | 0.139 | 0.249 | 0.317 | 1 | 0.408
4 | CC(=O)c1c(C)c2cnc(Nc3ccc(N4CCNCC4)cn3)nc2n(C2CCCC2)c1=O [Palbociclib] + Cn1cnc2c(F)c(Nc3ccc(Br)cc3Cl)c(C(=O)NOCCO)cc21 [Selumetinib] (first compound max 10 µM, 7x7, partner max 10 µM) | 0.697 | 0.691 | 0.358 | 0.518 | 0.382 | 0.314 | 0.407 | 0.344 | 0.158 | 0.438 | 0.124 | 0.744 | 0.428 | 0.14 | 0.206 | 0.141 | 0.338 | 0.339 | 0.886 | 0.379
5 | Cn1cnc2c(F)c(Nc3ccc(Br)cc3Cl)c(C(=O)NOCCO)cc21 [Selumetinib] + C=CCn1c(=O)c2cnc(Nc3ccc(N4CCN(C)CC4)cc3)nc2n1-c1cccc(C(C)(C)O)n1 [AZD1775] (first compound max 10 µM, partner max 1 µM) | 0.978 | 1 | 0.646 | 0.535 | 0.836 | 0.527 | 0.0977 | 0.327 | 0.567 | 0.277 | 0.116 | 0.854 | 0.542 | 0.566 | 0.489 | 0.0799 | 0.129 | 0.264 | 0.854 | 0.396
6 | CN(C)CCCOc1ccc(-c2ccc3ncc4c(c3c2)n(C2CCOCC2)c(=O)n4C)cn1 [AZD0156] + C=CCn1c(=O)c2cnc(Nc3ccc(N4CCN(C)CC4)cc3)nc2n1-c1cccc(C(C)(C)O)n1 [AZD1775] (first compound max 1 µM, partner max 1 µM) | 0.959 | 0.964 | 0.67 | 0.457 | 0.643 | 0.266 | 0.442 | 0.262 | 0.596 | 0.39 | 0.426 | 0.753 | 0.609 | 0.522 | 0.419 | 0.19 | 0.142 | 0.337 | 0.948 | 0.251
7 | NC1(C(=O)N[C@@H](CCO)c2ccc(Cl)cc2)CCN(c2ncnc3[nH]ccc23)CC1 [Capivasertib] + CC(C)n1c(=O)n(C)c2cnc3cc(F)c(-c4ccc(OCCCN5CCCCC5)nc4)cc3c21 [AZD1390] (first compound max 10 µM, 7x7, partner max 0.3 µM) | 0.521 | 0.296 | 0.622 | 0.459 | 0.478 | 0.512 | 0.256 | 0.156 | 0.336 | 0.323 | 0.109 | 0.401 | 0.325 | 0.439 | 0.163 | 0.209 | 0.174 | 0.348 | 0.882 | 0.223
8 | CC1(C)CCC(CN2CCN(c3ccc(C(=O)NS(=O)(=O)c4ccc(NCC5CCOCC5)c([N+](=O)[O-])c4)c(Oc4cnc5[nH]ccc5c4)c3)CC2)=C(c2ccc(Cl)cc2)C1 [Venetoclax] + Cc1cc2ncnn2cc1Nc1ncc2c(n1)n(C1CCOCC1)c(=O)n2C [AZD7648] (first compound max 1 µM, 7x7, partner max 10 µM) | 0.613 | 0.529 | 0.294 | 0.232 | 0.329 | 0.377 | 0.273 | 0.221 | 0.288 | 0.294 | 0.176 | 0.254 | 0.313 | 0.418 | 0.135 | 0.15 | 0.229 | 0.248 | 0.869 | 0.2
9 | COc1nnc2ccc(N3CCC(c4ccc(OCCN5CCN(C)C(=O)[C@H]5C)cc4)CC3)nn12 [AZD5153] + CCN(CCO)CCCOc1ccc2c(Nc3cc(CC(=O)Nc4cccc(F)c4)[nH]n3)ncnc2c1 [AZD2811] (first compound max 1 µM, 7x7, partner max 1 µM) | 1 | 0.92 | 0.535 | 0.844 | 0.609 | 0.609 | 0.485 | 0.463 | 0.414 | 0.641 | 0.0877 | 0.861 | 0.44 | 0.467 | 0.283 | 0.283 | 0.298 | 0.33 | 0.934 | 0.342
10 | CCc1c2c(nc3ccc(O)cc13)-c1cc3c(c(=O)n1C2)COC(=O)[C@]3(O)CC [SN-38] + CN(C)CCCOc1ccc(-c2ccc3ncc4c(c3c2)n(C2CCOCC2)c(=O)n4C)cn1 [AZD0156] (first compound max 0.3 µM, 7x7, partner max 1 µM) | 0.985 | 0.748 | 0.899 | 0.94 | 0.936 | 0.737 | 0.0821 | 0.149 | 0.827 | 0.464 | 0.105 | 0.784 | 0.481 | 0.632 | 0.474 | 0.88 | 0.196 | 0.312 | 1 | 0.51
11 | CC1(C)CCC(CN2CCN(c3ccc(C(=O)NS(=O)(=O)c4ccc(NCC5CCOCC5)c([N+](=O)[O-])c4)c(Oc4cnc5[nH]ccc5c4)c3)CC2)=C(c2ccc(Cl)cc2)C1 [Venetoclax] + C[C@@H]1COCCN1C2=NC(=NC(=C2)C3(CC3)[S@](=N)(=O)C)C4=C5C=CNC5=NC=C4 [AZD6738] (first compound max 1 µM, 7x7, partner max 10 µM) | 1 | 0.936 | 0.853 | 0.332 | 0.862 | 0.708 | 0.352 | 0.424 | 0.665 | 0.57 | 0.121 | 0.723 | 0.587 | 0.686 | 0.553 | 0.566 | 0.26 | 0.516 | 0.983 | 0.317
12 | CC1(C)CCC(CN2CCN(c3ccc(C(=O)NS(=O)(=O)c4ccc(NCC5CCOCC5)c([N+](=O)[O-])c4)c(Oc4cnc5[nH]ccc5c4)c3)CC2)=C(c2ccc(Cl)cc2)C1 [Venetoclax] + CN(C)CCCOc1ccc(-c2ccc3ncc4c(c3c2)n(C2CCOCC2)c(=O)n4C)cn1 [AZD0156] (first compound max 1 µM, 7x7, partner max 1 µM) | 0.516 | 0.612 | 0.144 | 0.254 | 0.178 | 0.273 | 0.18 | 0.26 | 0.201 | 0.224 | 0.115 | 0.588 | 0.205 | 0.408 | 0.319 | 0.183 | 0.243 | 0.239 | 0.811 | 0.175
13 | Cc1c2c(nn1C)CSCc1cc(n(C)n1)CSc1cc(c3ccccc3c1)OCCCc1c(C(=O)O)n(C)c3c-2c(Cl)ccc13 [AZD5991] + C=CCn1c(=O)c2cnc(Nc3ccc(N4CCN(C)CC4)cc3)nc2n1-c1cccc(C(C)(C)O)n1 [AZD1775] (first compound max 1 µM, partner max 1 µM) | 1 | 1 | 0.944 | 0.525 | 0.802 | 0.522 | 0.77 | 0.448 | 0.638 | 0.464 | 0.668 | 0.624 | 0.66 | 0.477 | 0.434 | 0.244 | 0.302 | 0.344 | 0.954 | 0.416
